What all share (settings): exposure time: 90 min
The test system of experiment [1] is 1118 (donor line of iPSC-derived cardiomyocytes). The experiment in a line: POD (EC05) for decrease in beat frequency (negative chronotrope) vs vehicle; higher = less potent (higher point of departure). The method, boiled down: (§1)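 Human iPSC-derived cardiomyocytes from 16 donors, dye-loaded for Ca2+, were treated for 90 min at 37 °C at final concentrations of 0.1, 1, 10 and 100 µM in 0.5% DMSO. Ca2+ flux was measured on a FLIPR Tetra before and after treatment. Hierarchical Bayesian Hill fitting of vehicle-normalised beat frequency, decay-to-rise ratio or peak frequency yielded donor-specific points of departure. Thresholds: 5% change, or 95% loss for peak frequency.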

Another experiment deals with 1309 (donor line of iPSC-derived cardiomyocytes). The experiment in a line: POD (EC05) for increase in beat frequency (positive chronotrope) vs vehicle; higher = less potent (higher point of departure). On the procedure: (§2)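 Human iPSC-derived cardiomyocytes from 16 donors were exposed for 90 min at 37 °C to each PFAS at 0.1, 1, 10 and 100 µM in 0.5% DMSO, 384-well plates. Kinetic Ca2+ flux (FLIPR) and Hoechst nuclei counts were normalised to vehicle wells and fitted with a hierarchical Bayesian Hill model to give donor-specific PODs: EC05 for beat-rate increase or decrease and for decay-to-rise ratio increase (QT proxy), EC95 for peak-frequency loss (asystole), EC10 for total cell number loss. 0.03 µM is the lower bound.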

The subject of another experiment is 1535 (donor line of iPSC-derived cardiomyocytes). The experiment is described as above. On the procedure: as §2
In a further experiment the test system is 1368 (donor line of iPSC-derived cardiomyocytes). The experiment is described as above. The procedure:
as §2

In experiment [2] the test system is 1531 (donor line of iPSC-derived cardiomyocytes). Described as above. The procedure:
as §2

Another experiment concerns 1434 (donor line of iPSC-derived cardiomyocytes). The description is as above. On the procedure: as §2
Experiment [3] has as its system 1518 (donor line of iPSC-derived cardiomyocytes). The description is as above. The procedure:
as §2

The test system of a further experiment is 1083 (donor line of iPSC-derived cardiomyocytes). The experiment is described as above. On the procedure: as §2
The next experiment has as its system 11235 (donor line of iPSC-derived cardiomyocytes). The description is as above. On the procedure:
as §2

In another experiment the test system is 20084 (donor line of iPSC-derived cardiomyocytes). Described as above. The procedure:
as §2

Experiment [4] has as its system 1516 (donor line of iPSC-derived cardiomyocytes). Described as above. The procedure: as §2
The test system of the next experiment is 1565 (donor line of iPSC-derived cardiomyocytes). The description is as above. On the procedure:
as §2

For a further experiment, the system named is 20032 (donor line of iPSC-derived cardiomyocytes). The description is as above. On the procedure:
as §2

For the next experiment, the system named is 30171 (donor line of iPSC-derived cardiomyocytes). Described as above. The procedure:
as §2

The test system of the next experiment is 1392 (donor line of iPSC-derived cardiomyocytes). The experiment is described as above. The procedure:
as §2

Experiment [5] deals with 1118. Described as above. On the procedure: as §2
Experiment [6] deals with 1531. Briefly: POD (EC05) for increase in Ca2+ transient decay-to-rise ratio (QT prolongation) vs vehicle; higher = less potent (higher point of departure). The method, boiled down: as §1
The next experiment has as its system 30145 (donor line of iPSC-derived cardiomyocytes). Briefly: POD (EC05) for increase in beat frequency (positive chronotrope) vs vehicle; higher = less potent (higher point of departure). The procedure: as §2
The subject of experiment [7] is 1518. The experiment in a line: POD (EC05) for increase in Ca2+ transient decay-to-rise ratio (QT prolongation) vs vehicle; higher = less potent (higher point of departure). The method, boiled down: as §1
The subject of experiment [8] is 1516. Described as above. In a few lines:
as §1

This note sets out measurements from the supplement of paper PMC11368000.

A value given as a limit tells only on which side of the number the result lay.

In the case of `O=C(O)C(F)(F)OC(F)(F)C(F)(F)OC(F)(F)F` [Perfluoro-3,6-dioxaheptanoic_acid], the POD vs vehicle with 1118 [1], with 1309, in the experiment on 1535, with 1368, in the experiment on 1531 [2] and in the experiment on 1434 was over 100 µM in each case. The POD vs vehicle in the experiment with 1518 [3], in the experiment with 1083, with 11235, with 20084, with 1516 [4] and in the experiment with 1565 was over 100 µM throughout. The POD vs vehicle in the experiment with 20032, in the experiment on 30171, in the experiment on 1392, in the experiment with 1118 [5] and in the experiment with 1531 [6] was over 100 µM each time.
`O=C(O)C(F)(F)C(F)(F)C(F)F` [2,2,3,3,4,4-Hexafluorobutanoic_acid]: the POD vs vehicle in the experiment on 1118 [1], in the experiment on 1309, in the experiment with 1535, in the experiment on 1368, with 1531 [2] and in the experiment with 1434 was over 100 µM throughout. In addition, the POD vs vehicle in the experiment with 1518 [3], in the experiment with 11235, in the experiment with 20084, in the experiment on 1516 [4], with 1565 and in the experiment with 20032 was over 100 µM throughout. The POD vs vehicle in the experiment with 30171, with 1392, with 1118 [5] and in the experiment with 1531 [6] was over 100 µM throughout.
`O=C(O)C(F)(F)C(F)(F)C(F)(F)C(F)(F)C(F)(F)C(F)(F)C(F)(F)C(F)(F)F` [Perfluorononanoic_acid]: the POD vs vehicle was 11 µM in the experiment with 1118 [1]; over 100 µM in the experiment with 1309; over 100 µM with 1535; over 100 µM in the experiment on 1368; over 100 µM with 1531 [2]; over 100 µM with 1434. Moreover, the POD vs vehicle in the experiment on 1518 [3], with 1083, in the experiment with 11235, with 20084, in the experiment with 1516 [4] and in the experiment on 1565 was over 100 µM in each case. The POD vs vehicle with 20032, with 30171, in the experiment with 1392, with 1118 [5] and in the experiment on 1531 [6] was over 100 µM throughout.
Consider `OCC(F)(F)C(F)(F)C(F)(F)CO` [Hexafluoroamylene_glycol], for which the POD vs vehicle in the experiment on 1118 [1], in the experiment on 1309, in the experiment on 1535, in the experiment on 1368, with 1531 [2] and in the experiment with 1434 was over 100 µM throughout. For the same compound, the POD vs vehicle in the experiment on 1518 [3], with 1083, in the experiment on 11235, with 20084, with 1516 [4] and with 1565 was over 100 µM in each case. For the same compound, the POD vs vehicle in the experiment on 20032, in the experiment on 30171, in the experiment on 1392, in the experiment with 1118 [5] and in the experiment with 1531 [6] was over 100 µM each time.
Take `O=C(O)C(F)(F)OC(F)(F)C(F)(F)OC(F)(F)C(=O)O` [Perfluoro-3,6-dioxaoctane-1,8-dioic_acid]: the POD vs vehicle in the experiment on 1118 [1], with 1309, in the experiment with 1535, with 1368, in the experiment with 1531 [2] and with 1434 was over 100 µM each time. For the same compound, the POD vs vehicle in the experiment on 1518 [3] was 28 µM; in the experiment on 1083, over 100 µM; in the experiment with 11235, over 100 µM; in the experiment with 20084, over 100 µM; in the experiment with 1516 [4] it was 68.4 µM; in the experiment with 1565, over 100 µM. The POD vs vehicle in the experiment on 20032 is over 100 µM; in the experiment with 30171 it was over 100 µM; in the experiment with 30145, over 100 µM; in the experiment on 1392 it was 36 µM; with 1118 [5] it was over 100 µM; in the experiment with 1518 [7], over 100 µM. For the same compound, in the experiment with 1516 [8], the POD vs vehicle was over 100 µM.
Consider `OCC(F)(F)C(F)(F)C(F)(F)C(F)F` [1H,1H,5H-Perfluoropentanol], for which the POD vs vehicle in the experiment on 1118 [1] is 22.8 µM; with 1309, over 100 µM; with 1535, over 100 µM; in the experiment with 1368, over 100 µM; with 1531 [2], over 100 µM; in the experiment on 1434, over 100 µM. Moreover, the POD vs vehicle in the experiment on 1518 [3], in the experiment on 1083, in the experiment on 11235, in the experiment on 20084, with 1516 [4] and with 1565 was over 100 µM each time. The POD vs vehicle in the experiment on 20032 is over 100 µM; with 30171, over 100 µM; in the experiment on 30145, over 100 µM; in the experiment with 1392, over 100 µM; in the experiment with 1118 [5], over 100 µM; in the experiment with 1518 [7], 2.03 µM. In the experiment on 1516 [8], the POD vs vehicle was 4.56 µM.
